ChEMBL document CHEMBL3045992, “Antitumour activity of 5-[(2E)-1-(1H-benzimidazol-2-yl)-3-substituted phenylprop-2-en-1-ylidene] pyrimidine-2,4,6(1H,3H,5H)-triones against Daltons ascitic lymphoma in mice” (Med Chem Res, 2013)

Key:
[1] = Antitumor activity against Mus musculus (mouse) DLA cells transplanted in Swiss albino mouse assessed as increase in life span at 20 mg/kg, ip qd administered 24 hr post tumor transplantation for 14 days measured on day 14 (reference value: 50%); type: functional; settings: route intraperitoneal
[2] = Antitumor activity against Mus musculus (mouse) DLA cells transplanted in Swiss albino mouse assessed as increase in platelet count at 20 mg/kg, ip qd administered 24 hr post tumor transplantation for 14 days measured on day 14 (reference value: 1.6 +/- 0.52 lakhs/mm3); type: functional; settings: route intraperitoneal
[3] = Antitumor activity against Mus musculus (mouse) DLA cells transplanted in Swiss albino mouse assessed as decrease in packed cell volume at 20 mg/kg, ip qd administered 24 hr post tumor transplantation for 14 days measured on day 14 (reference value: 30.55 +/- 3.52%); type: functional; design: scale not given: the % may be the effect or the level left; settings: route intraperitoneal
[4] = Antitumor activity against Mus musculus (mouse) DLA cells transplanted in Swiss albino mouse assessed as increase in haemoglobin level at 20 mg/kg, ip qd administered 24 hr post tumor transplantation for 14 days measured on day 14 (reference value: 7.12 +/- 0.95 g/dl); type: functional; settings: route intraperitoneal
[5] = Antitumor activity against Mus musculus (mouse) DLA cells transplanted in Swiss albino mouse assessed as decrease in total WBC count measured 10^3 cells at 20 mg/kg, ip qd administered 24 hr post tumor transplantation for 14 days measured on day 14 (reference value: 14.40 +/- 2.5 ml); type: functional; settings: route intraperitoneal
[6] = Antitumor activity against Mus musculus (mouse) DLA cells transplanted in Swiss albino mouse assessed as increase in RBC count at 20 mg/kg, ip qd administered 24 hr post tumor transplantation for 14 days measured on day 14 (reference value: 2.46 +/- 0.45 million/mm3); type: functional; settings: route intraperitoneal
[7] = Antitumor activity against Mus musculus (mouse) DLA cells transplanted in Swiss albino mouse assessed as decrease in alkaline phosphatase level at 20 mg/kg, ip qd administered 24 hr post tumor transplantation for 14 days measured on day 14 (reference value: 242.22 +/- 4.3 U/L); type: functional; settings: route intraperitoneal
[8] = Antitumor activity against Mus musculus (mouse) DLA cells transplanted in Swiss albino mouse assessed as decrease in cancer cell count measured 10^6 cells at 20 mg/kg, ip qd administered 24 hr post tumor transplantation for 14 days measured on day 14 (reference value: 2.76 +/- 0.33 ml); type: functional, Cancer cell lines; settings: route intraperitoneal
[9] = Antitumor activity against Mus musculus (mouse) DLA cells transplanted in Swiss albino mouse assessed as decrease in body weight at 20 mg/kg, ip qd administered 24 hr post tumor transplantation for 14 days measured on day 14 (reference value: 7.6 +/- 0.94 g); type: functional; settings: route intraperitoneal
[10] = Antitumor activity against Mus musculus (mouse) DLA cells transplanted in Swiss albino mouse assessed as decrease in alanine amino transferase level at 20 mg/kg, ip qd administered 24 hr post tumor transplantation for 14 days measured on day 14 (reference value: 61.2 +/- 2.6 U/L); type: functional; settings: route intraperitoneal
[11] = Antitumor activity against Mus musculus (mouse) DLA cells transplanted in Swiss albino mouse assessed as decrease in aspartate amino transferase level at 20 mg/kg, ip qd administered 24 hr post tumor transplantation for 14 days measured on day 14 (reference value: 85.6 +/- 2.72 U/L); type: functional; settings: route intraperitoneal
[12] = Antitumor activity against Mus musculus (mouse) DLA cells transplanted in Swiss albino mouse assessed as decrease in triglyceride level at 20 mg/kg, ip qd administered 24 hr post tumor transplantation for 14 days measured on day 14 (reference value: 210.12 +/- 4.65 mg/dl); type: functional; settings: route intraperitoneal
[13] = Antitumor activity against Mus musculus (mouse) DLA cells transplanted in Swiss albino mouse assessed as decrease in cholesterol level at 20 mg/kg, ip qd administered 24 hr post tumor transplantation for 14 days measured on day 14 (reference value: 140.86 +/- 4.6 mg/dl); type: functional; settings: route intraperitoneal
[14] = Antitumor activity against Mus musculus (mouse) DLA cells transplanted in Swiss albino mouse assessed as decrease in alkaline phosphatase level at 50 mg/kg, ip qd administered 24 hr post tumor transplantation for 14 days measured on day 14 (reference value: 242.22 +/- 4.3 U/L); type: functional; settings: route intraperitoneal
[15] = Antitumor activity against Mus musculus (mouse) DLA cells transplanted in Swiss albino mouse assessed as decrease in packed cell volume at 50 mg/kg, ip qd administered 24 hr post tumor transplantation for 14 days measured on day 14 (reference value: 30.55 +/- 3.52%); type: functional; design: scale not given: the % may be the effect or the level left; settings: route intraperitoneal
[16] = Antitumor activity against Mus musculus (mouse) DLA cells transplanted in Swiss albino mouse assessed as increase in haemoglobin level at 50 mg/kg, ip qd administered 24 hr post tumor transplantation for 14 days measured on day 14 (reference value: 7.12 +/- 0.95 g/dl); type: functional; settings: route intraperitoneal
[17] = Antitumor activity against Mus musculus (mouse) DLA cells transplanted in Swiss albino mouse assessed as increase in RBC count at 50 mg/kg, ip qd administered 24 hr post tumor transplantation for 14 days measured on day 14 (reference value: 2.46 +/- 0.45 million/mm3); type: functional; settings: route intraperitoneal
[18] = Antitumor activity against Mus musculus (mouse) DLA cells transplanted in Swiss albino mouse assessed as decrease in total WBC count measured 10^3 cells at 50 mg/kg, ip qd administered 24 hr post tumor transplantation for 14 days measured on day 14 (reference value: 14.40 +/- 2.5 ml); type: functional; design: unit not given here; settings: route intraperitoneal
[19] = test system: Mus musculus; test: Acute toxicity in ip dosed albino Mus musculus (mouse) after 24 hr; type: organism-based; settings: in vivo
[20] = Antitumor activity against Mus musculus (mouse) DLA cells transplanted in Swiss albino mouse assessed as decrease in cancer cell count measured 10^6 cells at 50 mg/kg, ip qd administered 24 hr post tumor transplantation for 14 days measured on day 14 (reference value: 2.76 +/- 0.33 ml); type: functional, Cancer cell lines; settings: route intraperitoneal
[21] = Antitumor activity against Mus musculus (mouse) DLA cells transplanted in Swiss albino mouse assessed as decrease in body weight at 50 mg/kg, ip qd administered 24 hr post tumor transplantation for 14 days measured on day 14 (reference value: 7.6 +/- 0.94 g); type: functional; settings: route intraperitoneal
[22] = Antitumor activity against Mus musculus (mouse) DLA cells transplanted in Swiss albino mouse assessed as increase in life span at 50 mg/kg, ip qd administered 24 hr post tumor transplantation for 14 days measured on day 14 (reference value: 50%); type: functional; settings: route intraperitoneal
[23] = Antitumor activity against Mus musculus (mouse) DLA cells transplanted in Swiss albino mouse assessed as decrease in alanine amino transferase level at 50 mg/kg, ip qd administered 24 hr post tumor transplantation for 14 days measured on day 14 (reference value: 61.2 +/- 2.6 U/L); type: functional; settings: route intraperitoneal
[24] = Antitumor activity against Mus musculus (mouse) DLA cells transplanted in Swiss albino mouse assessed as decrease in aspartate amino transferase level at 50 mg/kg, ip qd administered 24 hr post tumor transplantation for 14 days measured on day 14 (reference value: 85.6 +/- 2.72 U/L); type: functional; settings: route intraperitoneal
[25] = Antitumor activity against Mus musculus (mouse) DLA cells transplanted in Swiss albino mouse assessed as decrease in triglyceride level at 50 mg/kg, ip qd administered 24 hr post tumor transplantation for 14 days measured on day 14 (reference value: 210.12 +/- 4.65 mg/dl); type: functional; settings: route intraperitoneal
[26] = Antitumor activity against Mus musculus (mouse) DLA cells transplanted in Swiss albino mouse assessed as decrease in cholesterol level at 50 mg/kg, ip qd administered 24 hr post tumor transplantation for 14 days measured on day 14 (reference value: 140.86 +/- 4.6 mg/dl); type: functional; settings: route intraperitoneal
[27] = Antitumor activity against Mus musculus (mouse) DLA cells transplanted in Swiss albino mouse assessed as increase in platelet count at 50 mg/kg, ip qd administered 24 hr post tumor transplantation for 14 days measured on day 14 (reference value: 1.6 +/- 0.52 lakhs/mm3); type: functional; settings: route intraperitoneal

Compound	Activity [14]	Activity [15]	Activity [16]	Activity [17]	Activity [18]	ED50 [19]	Activity [20]	Activity [21]	Activity [22]	Activity [23]	Activity [24]	Activity [25]	Activity [26]	Activity [27]	further results
O=c1[nH]cc(F)c(=O)[nH]1 [FLUOROURACIL]															Activity [1]: 94%; Activity [2]: 2.65 ×10⁵ /mm3; Activity [3]: 17.45%; Activity [4]: 11.5 g/dL; Activity [5]: 11.3 mL; Activity [6]: 4.1 million/mm3; Activity [7]: 162.3 U/L; Activity [8]: 1.3 mL; Activity [9]: 3.7 g; Activity [10]: 42.45 U/L; Activity [11]: 56.3 U/L; Activity [12]: 156.42 mg/dL; Activity [13]: 112.52 mg/dL
COc1ccc(/C=C/C(=C2C(=O)NC(=O)NC2=O)c2nc3ccccc3[nH]2)cc1	218.26 U/L	22.9%	10.28 g/dL	3.15 million/mm3	12.55	50 mg/kg	1.96 mL	6.3 g	72%	53.52 U/L	75.62 U/L	170.6 mg/dL	126.35 mg/dL	2.12 ×10⁵ /mm3	
O=C1NC(=O)C(=C(/C=C/c2ccc(Cl)cc2)c2nc3ccccc3[nH]2)C(=O)N1	223.36 U/L	23.1%	10.3 g/dL	3.1 million/mm3	12.7	50 mg/kg	2.12 mL	6.6 g	70%	55.6 U/L	76.52 U/L	182.5 mg/dL	129.32 mg/dL	2.1 ×10⁵ /mm3	
CN(C)c1ccc(/C=C/C(=C2C(=O)NC(=O)NC2=O)c2nc3ccccc3[nH]2)cc1	210.21 U/L	22.42%	10.42 g/dL	3.25 million/mm3	12.5	50 mg/kg	1.9 mL	5.9 g	74%	51.45 U/L	73.4 U/L	172.4 mg/dL	124.3 mg/dL	2.22 ×10⁵ /mm3	
O=C1NC(=O)C(=C(/C=C/c2ccccc2O)c2nc3ccccc3[nH]2)C(=O)N1	229.15 U/L	23.68%	10.1 g/dL	2.8 million/mm3	13.45	50 mg/kg	2.03 mL	5.43 g	69%	56.42 U/L	75.4 U/L	178.7 mg/dL	131.3 mg/dL	2.05 ×10⁵ /mm3	
O=C1NC(=O)C(=C(/C=C/c2cccc([N+](=O)[O-])c2)c2nc3ccccc3[nH]2)C(=O)N1	202.85 U/L	20.48%	10.5 g/dL	3.3 million/mm3	12.45	50 mg/kg	1.88 mL	5.88 g	76%	53.42 U/L	72.6 U/L	168.7 mg/dL	122.3 mg/dL	2.3 ×10⁵ /mm3	
O=C1NC(=O)C(=C(/C=C/c2ccccc2)c2nc3ccccc3[nH]2)C(=O)N1	232.32 U/L	24.1%	9.3 g/dL	2.9 million/mm3	13.8	50 mg/kg	2.26 mL	6.45 g	66%	57.3 U/L	77.6 U/L	186.85 mg/dL	136.45 mg/dL	1.99 ×10⁵ /mm3	
